Experimental data published in ChEMBL document CHEMBL1201862, “PubChem BioAssay data set” (2004).
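Briefly, cells in 96-well plates were exposed to five compound concentrations for 48 h, and endpoints were estimated by linear interpolation. GI50 is the concentration that inhibits growth by half.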 Activity calls are given as the source filed them. Cut-off read from the data, not from the text of the source: active = GI50 up to about 1.1 µM and inactive = higher.

Tests used:
Test in all cases: growth of human tumour cells (NCI), 48 h
SF-539 = system: SF-539
NCI-H460 = system: NCI-H460
MOLT-4 = system: MOLT-4
NCI-H226 = system: NCI-H226
SK-OV-3 = system: SK-OV-3
NCI-H23 = system: NCI-H23
UACC-257 = system: UACC-257
UACC-62 = system: UACC-62
UO-31 = system: UO-31
MDA-N = system: MDA-N
OVCAR-5 = system: OVCAR-5
HOP-62 = system: HOP-62
U-251 = system: U-251
BT-549 = system: BT-549
MDA-MB-435 = system: MDA-MB-435
ACHN = system: ACHN
786-0 = system: 786-0
COLO 205 = system: COLO 205
SK-MEL-5 = system: SK-MEL-5
SF-295 = system: SF-295

Measured: GI50

CCC(=O)NC(Nc1ccc(O)cc1)(C(F)(F)F)C(F)(F)F
inactive: SF-539 96.4 µM | NCI-H460 > 100 µM | MOLT-4 42.5 µM | NCI-H226 > 100 µM | SK-OV-3 > 100 µM | NCI-H23 67.8 µM | UACC-257 37.4 µM | UACC-62 40.1 µM | UO-31 35.6 µM | MDA-N 17.9 µM | OVCAR-5 > 100 µM | HOP-62 > 100 µM | U-251 73.6 µM | BT-549 28.1 µM | MDA-MB-435 25.2 µM | ACHN 56 µM

C=CC(O)(CBr)CCC(Br)C(=C)C (stereo unspecified)
inactive: SF-539 > 10 µM | 786-0 > 10 µM | COLO 205 > 10 µM | NCI-H460 > 10 µM | MOLT-4 > 10 µM | NCI-H226 > 10 µM | SK-MEL-5 > 10 µM | SK-OV-3 > 10 µM | NCI-H23 > 10 µM | UACC-257 > 10 µM | UACC-62 > 10 µM | MDA-N > 10 µM | OVCAR-5 > 10 µM | HOP-62 > 10 µM | U-251 > 10 µM | SF-295 > 10 µM | BT-549 > 10 µM | MDA-MB-435 > 10 µM | ACHN > 10 µM

Cc1cc(S(=O)(=O)/N=C(\NN)NCC(=O)NN)c(S)cc1Cl
inactive: SF-539 > 10 µM | 786-0 > 10 µM | COLO 205 > 10 µM | NCI-H460 > 10 µM | MOLT-4 > 10 µM | NCI-H226 > 10 µM | SK-MEL-5 8.85 µM | SK-OV-3 > 10 µM | NCI-H23 > 10 µM | UACC-257 > 10 µM | UACC-62 > 10 µM | MDA-N > 10 µM | OVCAR-5 > 10 µM | HOP-62 > 10 µM | U-251 > 10 µM | SF-295 > 10 µM | BT-549 > 10 µM | MDA-MB-435 > 10 µM | ACHN > 10 µM

Cc1cnoc1/N=C1\C=C(O)C(=O)c2ccccc21
inactive: SF-539 21.4 µM | 786-0 53.2 µM | COLO 205 35.9 µM | NCI-H460 6.32 µM | MOLT-4 17.4 µM | NCI-H226 35.3 µM | SK-MEL-5 3.46 µM | SK-OV-3 > 100 µM | NCI-H23 4.71 µM | UACC-257 16.3 µM | UACC-62 4.71 µM | UO-31 10.8 µM | MDA-N 1.26 µM | OVCAR-5 10.9 µM | HOP-62 10 µM | U-251 1.79 µM | SF-295 22.8 µM | BT-549 4.9 µM | MDA-MB-435 1.31 µM | ACHN 21.8 µM

Cc1ccc(S(=O)(=O)N2CCc3cc(O)c([N+](=O)[O-])cc32)cc1
inactive: SF-539 > 100 µM | 786-0 > 100 µM | COLO 205 > 100 µM | MOLT-4 > 100 µM | NCI-H226 > 100 µM | SK-MEL-5 > 100 µM | SK-OV-3 > 100 µM | NCI-H23 > 100 µM | UACC-257 > 100 µM | UACC-62 > 100 µM | UO-31 > 100 µM | MDA-N > 100 µM | HOP-62 > 100 µM | U-251 > 100 µM | SF-295 > 100 µM | BT-549 > 100 µM | MDA-MB-435 > 100 µM | ACHN > 100 µM

COc1cc(C2SC(=N)Nc3c2c(C)nn3C(=O)c2ccc(Cl)cc2)cc(OC)c1OC (stereo unspecified)
inactive: SF-539 > 10 µM | 786-0 > 10 µM | COLO 205 > 10 µM | NCI-H460 > 10 µM | MOLT-4 > 10 µM | NCI-H226 > 10 µM | SK-MEL-5 > 10 µM | SK-OV-3 > 10 µM | NCI-H23 > 10 µM | UACC-257 > 10 µM | UACC-62 > 10 µM | MDA-N > 10 µM | OVCAR-5 > 10 µM | HOP-62 > 10 µM | U-251 > 10 µM | SF-295 > 10 µM | BT-549 > 10 µM | MDA-MB-435 > 10 µM | ACHN > 10 µM

CCOc1ccc(NC(=O)/C(=N\NC(C)(C)C)C2C(=O)Nc3ccccc3[S+]2[O-])cc1 (stereo unspecified)
inactive: SF-539 > 100 µM | 786-0 > 100 µM | COLO 205 > 100 µM | NCI-H460 > 100 µM | MOLT-4 > 100 µM | NCI-H226 > 100 µM | SK-MEL-5 > 100 µM | SK-OV-3 > 100 µM | NCI-H23 > 100 µM | UACC-257 > 100 µM | UACC-62 > 100 µM | UO-31 > 100 µM | MDA-N > 100 µM | OVCAR-5 > 100 µM | HOP-62 > 100 µM | U-251 > 100 µM | SF-295 > 100 µM | BT-549 > 100 µM | MDA-MB-435 > 100 µM | ACHN > 100 µM

Cc1cccc2c1[nH]c1[nH]c(=O)[nH]c(=O)c12
inactive: SF-539 > 100 µM | 786-0 > 100 µM | COLO 205 > 100 µM | MOLT-4 > 100 µM | NCI-H226 > 100 µM | SK-MEL-5 > 100 µM | SK-OV-3 > 100 µM | NCI-H23 > 100 µM | UACC-257 > 100 µM | UACC-62 > 100 µM | UO-31 > 100 µM | MDA-N > 100 µM | OVCAR-5 > 100 µM | HOP-62 > 100 µM | SF-295 > 100 µM | BT-549 > 100 µM | MDA-MB-435 > 100 µM | ACHN > 100 µM

COc1cc(/C=N/NC(=O)c2c(Cl)c(Cl)c(Cl)c(Cl)c2-c2nc3cc(C(=O)c4ccccc4)ccc3[nH]2)ccc1O
inactive: SF-539 24.9 µM | 786-0 37.2 µM | COLO 205 24.8 µM | MOLT-4 16.4 µM | NCI-H226 34.2 µM | SK-MEL-5 20.4 µM | SK-OV-3 56.4 µM | NCI-H23 28.4 µM | UACC-257 60.8 µM | UO-31 45.6 µM | MDA-N 16.1 µM | OVCAR-5 > 100 µM | HOP-62 38.5 µM | U-251 35.4 µM | SF-295 29.9 µM | BT-549 32.7 µM | MDA-MB-435 13.8 µM | ACHN 60.7 µM

O=C1Sc2ccccc2NC1=C(C(=O)c1ccccc1)C(=O)c1ccccc1
inactive: SF-539 26.5 µM | 786-0 26.2 µM | COLO 205 37.4 µM | NCI-H460 9.95 µM | NCI-H226 19.4 µM | SK-MEL-5 16.8 µM | SK-OV-3 21.7 µM | NCI-H23 22.6 µM | UACC-257 17.5 µM | UACC-62 27 µM | UO-31 29.9 µM | MDA-N 33.7 µM | OVCAR-5 47.1 µM | HOP-62 8.75 µM | U-251 16 µM | SF-295 20.6 µM | BT-549 35.9 µM | MDA-MB-435 40.6 µM | ACHN 22.1 µM

CN(C)c1nc2n(CCO)ccnc-2c(=O)n1
inactive: SF-539 > 100 µM | 786-0 > 100 µM | COLO 205 > 100 µM | NCI-H460 > 100 µM | MOLT-4 > 100 µM | NCI-H226 > 100 µM | SK-MEL-5 > 100 µM | SK-OV-3 > 100 µM | NCI-H23 > 100 µM | UACC-257 > 100 µM | UACC-62 > 100 µM | UO-31 > 100 µM | MDA-N > 100 µM | OVCAR-5 > 100 µM | HOP-62 > 100 µM | U-251 > 100 µM | SF-295 > 100 µM | BT-549 > 100 µM | MDA-MB-435 > 100 µM | ACHN > 100 µM
